Measurements as given in paper PMC12013366, “In vitro evaluation of the immunogenic potential of gramicidin S and its photocontrolled analogues” (RSC Medicinal Chemistry, 2025).
Non-standard residues stand in square brackets, D forms with d. Residues, ends and D or L forms follow the SMILES beside them. Orn = NCCC[C@H](N)C(=O)O

How the values were obtained:
[1] = system: membrane-bound CALR on MDA-MB-231 cells; test: CALR exposure, cytofluorimetric measurements; format: cell-based, human; details: concentrations higher than IC50 (16 and 32 μM), flow cytometry
Experimental: We performed fluorescence microscopy using an Alexa Fluor 647 anti-CALR antibody for quantifying the CALR exposure on the surface of cells. Confluent monolayer 4T1, HeLa, HepG2 and MDA-MB-231 cell cultures were incubated with GS and GS-derived peptides for 24 h followed by fixation, staining with the antibody and microscopic observation. Using the images, we calculated the total levels of the fluorescence signal per cell in each sample. […] While practically no enhancement in CALR exposure could be detected in the HeLa cell culture, a 4–7-fold enhancement is observed for HepG2 at 32 μM of GS, LMB002-open and LMB033-open. Then 8 and 16 μM of GS caused a 3-fold increase of CALR exposure in breast cancer cell lines 4T1 and MDA-MB-231. We noted no direct dose dependence of CALR release in our experiments. It may stem from the difference in the kinetics of CALR exposure. To examine the time dependence of the CALR exposure, cytofluorimetric experiments were conducted on the MDA-MB-231 cell line (Fig. 9) using an Alexa Fluor 647 anti-CALR antibody. In this experiment, 30 min, 3 h, 6 h and 24 h were the time points for monitoring the fraction of cells expressing CALR on their surface.
This is different from the release kinetics of ATP, which was released from the cytosol of the cells with compromised plasma membranes almost immediately after the treatment with our peptides. […]

[2] = system: HMGB1 released by HepG2 cells; test: HMGB1 release, bioluminescence immunoassay (Lumit HMGB1) in the supernatant; format: cell-based, human; details: 64 μM, n=3
Experimental: HMGB1 was quantified (using a calibration curve) by a bioluminescence assay in the supernatant.
For this, 25 000 cells per well of HepG2 were seeded in 200 μL of complete DMEM in a 96-well black-wall transparent-bottom plate (655090, Greiner). After 24 h, the medium was aspired, and 100 μL of DPBS was added for rinsing and then aspired. Then, 100 μL of Leibovitz L-15 medium that contained 10% FBS was added. After that, 2× concentrated solutions of tested compounds (64 and 8 μM, triplicates for each time point) were prepared in the same Leibovitz L-15 medium in an intermediate plate and dispensed in a volume of 100 μL to the cell-containing plate. The calibration curve was constructed using a HMGB1 stock solution (1000–0.24 ng mL^−1, 4-fold dilution, 7 points, n = 2) from Lumit HMGB1 (Human/Mouse) immunoassay kit (W6110, Promega) and dispensed in a 96-well white-wall transparent-bottom working plate (353377, Falcon). After 30 min, 3 h and 24 h, aliquots from the intermediate plate (tested compounds) were transferred to the working plate. […] The plate was shaken for 1 min and incubated for 1 h at room temperature. […] The luminescence signal was collected throughout the visible range (360–700 nm). The data were analyzed using GraphPad Prism 10.

CC(C)C[C@@H]1NC(=O)[C@H](CCCN)NC(=O)[C@H](C(C)C)NC(=O)[C@@H]2CCCN2C(=O)[C@@H](Cc2ccccc2)NC(=O)[C@H](CC(C)C)NC(=O)[C@H](CCCN)NC(=O)[C@H](C(C)C)NC(=O)[C@@H]2CCCN2C(=O)[C@@H](Cc2ccccc2)NC1=O [Gramicidin S, gramicidin S] (cyclo(V[Orn]L[dF]PV[Orn]L[dF]P))
incubation time after which all cells exposed CALR on their surface [1]: 3 h
HMGB1 detected in the supernatant ([2]; 30 min post-treatment, interpolated from calibration curve): 50 ng/mL
HMGB1 detected in the supernatant ([2]; at 3 h, constant up to 24 h): 10 ng/mL
